Key:
[1] = cited from earlier work
[2] = system: M. tuberculosis strain H37Ra; type: cell-based
[3] = system: M. tuberculosis strain Erdman in human macrophages; assay: Growth inhibition of M. tuberculosis Erdman in human monocyte derived macrophages (MDM); type: cell-based
Description: (§1) Monocyte derived macrophages (MDM) containing strain H37Ra were incubated for 24 h (FIG. 2A), 48 h (FIG. 2B) or 72 h (FIG. 2C) and macrophages containing the virulent strain Erdman were incubated for 24 h (FIG. 2D) or 48 h (FIG. 2E) in gallium nitrate.
(§2) The gallium-containing compounds can also be tested for their ability to inhibit intracellular pathogens in tissue culture assays. In general, in these assays, the macrophages are placed in culture and incubated with the intracellular pathogen at an approximate cell to pathogen ratio of preferably at least 1:1 to about 1:5 cells:pathogen. Exemplary culture conditions are provided in the assays detailed in the Examples. For assays assessing M. tuberculosis infection, freshly adherent monocytes, 12 day-old adherent MDMs, or freshly adherent alveolar macrophages are incubated with M. tuberculosis, MAI or other intracellular bacteria at a ratio of about 1:1 to about 1:5 (phagocyte:bacterium). For M. tuberculosis or MAI, the bacteria are incubated with the phagocyte for 2 hr at 37° C. in RPMI/HEPES media with 2.5% serum or human serum albumin (serum-free). The cells are washed to remove non-adherent bacteria and monolayers are replated with RPMI containing 1% autologous serum (to maintain phagocyte viability but not to sustain extracellular growth of bacteria). Gallium-containing compounds, such as gallium nitrate, with, or without, other agents such as antibiotics, cytokines etc., are added about 24 hr. later and mycobacterial growth in cell lysates is then assessed over the next several days either by the radiometric BACTEC system or by colony-forming units on agarose plates. In each experiment, growth is assessed relative to control monolayers where no drug has been added.
(§3) Mononuclear phagocytes from healthy adult volunteers who were tuberculin skin test negative and had no history of mycobacterial infection were isolated and cultured in Teflon wells according to the methods of Schlesinger, et al. (J. Immunol. 150:2920-2930, 1993). […]

[4] = infused in vivo; cited from earlier work
[5] = system: M. avium-intracellulare complex (MAI), ATCC #25291; assay: Growth inhibition of MAI (ATCC isolate) in human alveolar macrophages; type: cell-based; details: 500 μM, 24 hr and 48 hr
Description: M. avium-intracellulare complex (MAI) was obtained from the ATCC (#25291) and from a patient isolate from the State Hygienic laboratory at the University of Iowa Hospital and Clinics. Human alveolar macrophages were obtained from broncholavage of healthy patients and placed in monolayer culture. The bacteria were added to the cells in a bacteria to macrophage ratio of about 1:1. Growth index readings were obtained at 24 hr and 48 hr after gallium nitrate administration (500 μM) as described in Example 3 and used by Cavalieri, et al. (Antimicrob. Agents and Chemo. 39:1542-1545,1995).

[6] = system: M. tuberculosis strain H37Ra in human macrophages; assay: Growth inhibition of M. tuberculosis H37Ra in human monocyte derived macrophages (MDM); type: cell-based
Description: as §1, §2, §3

[7] = system: Macrophages (MDMs) infected with M. tuberculosis; assay: Monolayer density of macrophages (MDMs) infected with M. tuberculosis and treated with gallium nitrate; type: cell-based, human
Description: Macrophages were infected with M. tuberculosis at a ratio of 1:5 (MDMs:bacteria) and treated with 500 μM or 1 mM gallium nitrate. Cell density was assessed over time. The results of the experiments comparing the monolayer integrity of untreated vs. gallium nitrate treated cultures were as follows: […]

O=[N+]([O-])[O-].O=[N+]([O-])[O-].O=[N+]([O-])[O-].[Ga+3] [gallium nitrate]
dose that is non-toxic in vivo ([1]; in vivo): at least 200 mg/m^2 /day
plasma concentration that is non-toxic in vivo ([1]; in vivo): greater than 1.2 mg/L
tolerated dose ([1]; intravenous, at least 7 days (Todd et al.)): at least 200 mg/m^2 /day
safe dose in cancer patient therapy ([1]; literature, cancer patients): at least 200 mg/m^2 /day
tolerability ([1]; patients with cancer-related hypercalcemia): well tolerated, producing few clinically relevant adverse effects
concentration with marked inhibition of growth (comparison with gallium transferrin) [2]: 100 µM
inhibition of growth ([3]; 24 h): Inhibition of growth was observed
inhibition of growth ([3]; about 1 to about 1000 μM): dose-dependent inhibition of growth
inhibition of growth versus 24 h ([3]; text: 48 and 72 h, FIG. 2 legend: 24 and 48 h for Erdman): More marked inhibition of growth
binding to serum transferrin on infusion [4]: most of the gallium binds rapidly to serum transferrin
growth inhibition of MAI [5]: inhibits the growth of MAI
growth inhibition of MAI ([5]; listed as Gallium nitrate): significant inhibition of MAI growth
inhibition of growth versus 24 h ([6]; 48 and 72 h): More marked inhibition of growth
inhibition of growth ([6]; 24 h): Inhibition of growth was observed
inhibition of growth ([6]; about 1 to about 1000 μM): dose-dependent inhibition of growth
Monolayer Integrity ([7]; Experiment #2, Day 1, 24 hr postinfection, 500 μM or 1 mM): No difference between Ga-treated and control
Monolayer Integrity ([7]; Experiment #2, Day 3, 4 days postinfection, 500 μM or 1 mM): No difference between Ga-treated and control
Monolayer Integrity: times the number of cells in Ga-treated cultures ([7]; Experiment #2, Day 6, 7 days postinfection, 500 μM or 1 mM): 2-4 times
Monolayer Integrity ([7]; Experiment No. 1, Day 1, 24 h postinfection, 500 μM or 1 mM): No difference
Monolayer Integrity: more cells in Ga-treated cultures ([7]; Experiment No. 1, Day 8, 9 days postinfection, 500 μM or 1 mM): 25-50%
Monolayer Integrity: times as many cells in Ga-treated cultures ([7]; Experiment No. 1, Day 11, 12 days postinfection, 500 μM or 1 mM): 4-5 times
Monolayer Integrity: times as many cells in Ga-treated cultures ([7]; Experiment No. 1, Day 29, 30 days postinfection, 500 μM or 1 mM): 4-5 times
Monolayer Integrity ([7]; Experiment No. 1, Day 33, 34 days postinfection, control wells had no cells left): No difference between monolayers treated
